Source: ChEMBL document CHEMBL3044893, “Synthesis and structureactivity relationships of aliphatic isothiocyanate analogs as antibiotic agents” (Med Chem Res, 2013)
In brackets after ≈: the same amount, converted by molar mass.

Tests used:
Rhizoctonia solani [1] = assay: Growth inhibition of Rhizoctonia solani at 500 ug/ml after 24 to 28 […] by growth rate method; type: functional; settings: read-out: GI
Rhizoctonia solani [2] = assay: Growth inhibition of Rhizoctonia solani at 300 ug/ml after 24 to 28 […] by growth rate method; type: functional; settings: read-out: GI
Rhizoctonia solani [3] = assay: Growth inhibition of Rhizoctonia solani at 100 ug/ml after 24 to 28 […] by growth rate method; type: functional; settings: read-out: GI
Rhizoctonia solani [4] = assay: Growth inhibition of Rhizoctonia solani at 50 ug/ml after 24 to 28 […] by growth rate method; type: functional; settings: read-out: GI
Rhizoctonia solani [5] = assay: Growth inhibition of Rhizoctonia solani at 10 ug/ml after 24 to 28 […] by growth rate method; type: functional; settings: read-out: GI
[6] = 1-octanol-water partition coefficient, log P of the compound by shake flask method; type: physicochemical
[7] = test system: Pectobacterium carotovorum; assay: Antibacterial activity against Pectobacterium carotovorum after 12 hr by turbidometric analysis; type: functional, organism-based
[8] = test system: Pectobacterium carotovorum; assay: Growth inhibition of Pectobacterium carotovorum at 30 ug/ml after 12 hr by turbidometric analysis; type: functional; settings: read-out: GI
[9] = test system: Pectobacterium carotovorum; assay: Growth inhibition of Pectobacterium carotovorum at 5 ug/ml after 12 hr by turbidometric analysis; type: functional; settings: read-out: GI
[10] = test system: Pectobacterium carotovorum; assay: Growth inhibition of Pectobacterium carotovorum at 50 ug/ml after 12 hr by turbidometric analysis; type: functional; settings: read-out: GI
[11] = test system: Pectobacterium carotovorum; assay: Growth inhibition of Pectobacterium carotovorum at 20 ug/ml after 12 hr by turbidometric analysis; type: functional; settings: read-out: GI
[12] = test system: Pectobacterium carotovorum; assay: Growth inhibition of Pectobacterium carotovorum at 10 ug/ml after 12 hr by turbidometric analysis; type: functional; settings: read-out: GI
Rhizoctonia solani [13] = assay: Antifungal activity against Rhizoctonia solani after 24 to 28 […] by growth rate method; type: functional, organism-based
[14] = test system: Pectobacterium carotovorum; assay: Growth inhibition of Pectobacterium carotovorum at 0.5 ug/ml after 12 hr by turbidometric analysis; type: functional; settings: read-out: GI
[15] = test system: Pectobacterium carotovorum; assay: Growth inhibition of Pectobacterium carotovorum at 0.01 ug/ml after 12 hr by turbidometric analysis; type: functional; settings: read-out: GI
[16] = test system: Pectobacterium carotovorum; assay: Growth inhibition of Pectobacterium carotovorum at 1 ug/ml after 12 hr by turbidometric analysis; type: functional; settings: read-out: GI
[17] = test system: Pectobacterium carotovorum; assay: Growth inhibition of Pectobacterium carotovorum at 0.02 ug/ml after 12 hr by turbidometric analysis; type: functional; settings: read-out: GI
[18] = test system: Pectobacterium carotovorum; assay: Growth inhibition of Pectobacterium carotovorum at 2 ug/ml after 12 hr by turbidometric analysis; type: functional; settings: read-out: GI
[19] = test system: Pectobacterium carotovorum; assay: Growth inhibition of Pectobacterium carotovorum at 0.2 ug/ml after 12 hr by turbidometric analysis; type: functional; settings: read-out: GI
Rhizoctonia solani [20] = assay: Growth inhibition of Rhizoctonia solani at 5 ug/ml after 24 to 28 […] by growth rate method; type: functional; settings: read-out: GI
[21] = test system: Pectobacterium carotovorum; assay: Growth inhibition of Pectobacterium carotovorum at 0.05 ug/ml after 12 hr by turbidometric analysis; type: functional; settings: read-out: GI
Rhizoctonia solani [22] = assay: Growth inhibition of Rhizoctonia solani at 70 ug/ml after 24 to 28 […] by growth rate method; type: functional; settings: read-out: GI
[23] = test system: Pectobacterium carotovorum; assay: Growth inhibition of Pectobacterium carotovorum at 70 ug/ml after 12 hr by turbidometric analysis; type: functional; settings: read-out: GI
Rhizoctonia solani [24] = assay: Growth inhibition of Rhizoctonia solani at 25 ug/ml after 24 to 28 […] by growth rate method; type: functional; settings: read-out: GI
Rhizoctonia solani [25] = assay: Growth inhibition of Rhizoctonia solani at 15 ug/ml after 24 to 28 […] by growth rate method; type: functional; settings: read-out: GI
[26] = test system: Pectobacterium carotovorum; assay: Growth inhibition of Pectobacterium carotovorum at 100 ug/ml after 12 hr by turbidometric analysis; type: functional; settings: read-out: GI
[27] = test system: Pectobacterium carotovorum; assay: Growth inhibition of Pectobacterium carotovorum at 80 ug/ml after 12 hr by turbidometric analysis; type: functional; settings: read-out: GI

Structure (SMILES)	inhibition of growth at 500 µg/mL (Rhizoctonia solani [1])	inhibition of growth at 300 µg/mL (Rhizoctonia solani [2])	inhibition of growth at 100 µg/mL (Rhizoctonia solani [3])	inhibition of growth at 50 µg/mL (Rhizoctonia solani [4])	inhibition of growth at 10 µg/mL (Rhizoctonia solani [5])	logP [6]	EC50 [7]	inhibition of growth at 5 µg/mL [9]	inhibition of growth at 50 µg/mL [10]	inhibition of growth at 20 µg/mL [11]	inhibition of growth at 10 µg/mL [12]	EC50 (Rhizoctonia solani [13])	inhibition of growth at 5 µg/mL (Rhizoctonia solani [20])	further results
CCCCCCCN=C=S [1-ISOTHIOCYANATOHEPTANE]	89.1%	75.1%	62%	46.6%	21.6%	4.19	7.51 µg/mL (≈ 47.7 µM)	28.8%	97%	84.1%	68%	54.5 µg/mL (≈ 346 µM)		inhibition of growth at 30 µg/mL [8]: 94.4%
CCCCCCN=C=S [1-ISOTHIOCYANATOHEXANE]						3.68								
CCCCCCCCN=C=S [1-ISOTHIOCYANATOOCTANE]	84.2%	82.2%	74.8%	66.1%	21.8%	4.7	1.17 µg/mL (≈ 6.83 µM)	70.6%			83.1%	34.7 µg/mL (≈ 203 µM)		inhibition of growth at 0.5 µg/mL [14]: 24.7%; inhibition of growth at 0.01 µg/mL [15]: 6.4%; inhibition of growth at 1 µg/mL [16]: 47.8%
CCCCCN=C=S [1-ISOTHIOCYANATOPENTANE]	87.4%	69%	44.6%	34.9%	16%	3.17	2.03 µg/mL (≈ 15.7 µM)	72.3%				90 µg/mL (≈ 696 µM)		inhibition of growth at 0.02 µg/mL [17]: 2.04%; inhibition of growth at 0.5 µg/mL [14]: 26.2%; inhibition of growth at 2 µg/mL [18]: 36%; inhibition of growth at 0.2 µg/mL [19]: 22.3%
CCCCN=C=S [BUTYL ISOTHIOCYANATE]		91.6%	68.2%	57.7%	15.5%	2.66	26.1 µg/mL (≈ 227 µM)	31.7%		84.4%	43.9%	42.8 µg/mL (≈ 372 µM)	3.72%	inhibition of growth at 0.2 µg/mL [19]: 10.7%; inhibition of growth at 0.05 µg/mL [21]: 6.38%
CCN=C=S [ETHYL ISOTHIOCYANATE]			91.8%	67.3%	61.1%	1.64	41.6 µg/mL (≈ 478 µM)		64.6%	11.7%	6.74%	3.52 µg/mL (≈ 40.4 µM)	58.8%	inhibition of growth at 70 µg/mL (Rhizoctonia solani [22]): 73.9%; inhibition of growth at 70 µg/mL [23]: 94.8%; inhibition of growth at 30 µg/mL [8]: 48.5%
CN=C=S [METHYLISOTHIOCYANATE]			84.6%	77.5%	41.5%	1.13	38.2 µg/mL (≈ 523 µM)		61.1%	29.9%	10.9%	12.3 µg/mL (≈ 169 µM)		inhibition of growth at 25 µg/mL (Rhizoctonia solani [24]): 66.3%; inhibition of growth at 15 µg/mL (Rhizoctonia solani [25]): 49.7%; inhibition of growth at 100 µg/mL [26]: 81.3%; inhibition of growth at 80 µg/mL [27]: 71.5%
CCCN=C=S [PROPYL ISOTHIOCYANATE]		93.7%	84.2%	68%	50.1%	2.15	20.6 µg/mL (≈ 204 µM)		76.3%	47%	29%	12 µg/mL (≈ 118 µM)	21.4%	inhibition of growth at 100 µg/mL [26]: 90.7%; inhibition of growth at 80 µg/mL [27]: 86%
